Results as given in patent US20220023335A1, “COMPOSITION FOR PREVENTION AND/OR IMPROVEMENT OF ADVERSE DRUG REACTION, SYMPTOM ASSOCIATED WITH ADVERSE DRUG REACTION, AND/OR ADVERSE REACTION ASSOCIATED WITH MEDICAL TREATMENT” (MiZ Company Limited, priority 2020, published 2022).

How the values were obtained:
[1] = known; cited from earlier work
[2] = tested on: adverse reactions to hemodialysis (walking difficulty, edema); settings: person on hemodialysis, hydrogen approximately 5% in air, 200 mL/min, three to four hours per day
Source text: A patient developed renal failure as a complication of diabetes mellitus and has been receiving hemodialysis since 2006.

[3] = tested on: adverse drug reactions of sleepiness and tiredness; settings: person, three days later
[4] = tested on: malaise and nausea after radiotherapy; settings: cancer patient after radiotherapy, hydrogen gas 3% to 4% by volume, approximately 120 mL/min
[5] = tested on: adverse drug reactions of lost hair on the head and rough skin; settings: person, hydrogen gas 6.6% by volume, approximately 120 mL/min
[6] = tested on: rhabdomyolysis caused by the antibacterial agent; settings: person, hydrogen gas 6.6% by volume, approximately 120 mL/min, 90 minutes per day for two weeks
Source text: They lost strength in the body and was taken to hospital by ambulance. […] They were discharged from hospital one week later, but the tiredness persisted, and they had difficulty in putting strength into the limbs. […] Their condition improved to the extent that they could have a walk.

[7] = tested on: adverse drug reactions of malaise and rough skin; settings: person; hydrogen gas 4% to 5% by volume, approximately 200 mL/min, three to five hours per day, plus 500 mL per day of 7 ppm hydrogen water; three months
[8] = tested on: adverse drug reaction of persistent insomnia, malaise; settings: person
Source text: A patient with esophageal cancer experienced an adverse drug reaction of persistent insomnia due to treatment with anticancer agents, lost appetite because of malaise, and could not even go out. […] The inhalation time per day was two to three hours. […] When they drank too much alcohol, they used to have a severe hangover.

SMILES	superoxide eliminating effect compared with H2 [1]	walking difficulty ([2]; from 10 days after initiation)	edema after dialysis ([2]; from one month after initiation)	tiredness of the body after taking the drugs ([3]; cedar pollinosis, hydrogen gas 6.6% by volume, approximately 120 mL/min, 90 minutes to three hours per day, plus 7 ppm hydrogen water 500 mL to 1 L per day)	sleepiness / clearness of the head ([3]; hydrogen gas 6.6% by volume plus 7 ppm hydrogen water)	nausea ([4]; 90 minutes later)	malaise (body feeling) ([4]; one hour after start of inhalation)	rough skin ([5]; sarcoma, anticancer agents and Opdivo, approximately one month later)	hair on the head ([5]; inhalation continued for six months after anticancer treatment)	strength in the limbs ([6]; new quinolone antibacterial agent)	tiredness [6]	malaise [7]	skin condition [7]	sleep (insomnia) ([8]; esophageal cancer, hydrogen gas 1.3% by volume, approximately 30 mL/min, two to three hours per day, following the second inhalation)	ability to go out / body feeling ([8]; hydrogen gas 1.3% by volume, approximately 30 mL/min, two to three hours per day)	hangover after too much alcohol ([8]; hydrogen inhaled before going to sleep)
[2H][2H] [D2, deuterium]	stronger															
[HH] [hydrogen gas, molecular hydrogen]		able to walk	edema was reduced	reduced	they felt that the head was cleared	Nausea was gradually resolving	they felt the body becoming light	the rough skin started improving	started growing	became gradually able to put strength into the limbs	reduced tiredness	malaise subsided	the skin started becoming lustrous	could sleep soundly	the patient was able to go out	a hangover started improving earlier than usual
